Results from PubChem BioAssay AID2060483 (Molecular Pharmacology Branch, DTP, NCI, 2025).

Test system: K24384-001-R-PDC complex spheroids, viability
Test: Anticancer human tumor K24384-001-R-PDC patient-derived pancreatic adenocarcinoma cell line growth inhibition [GQUAD]
Conditions: for IC50: curve of first compound; for viability, T/C: stronger effect = lower value; active means viability on the fitted dose curve at most 10% of control; inactive means the rest
Excerpt: DNA G-quadruplex Stabilizer Agents in Combinations in Complex Spheroids
A high-throughput screen of multi-cell type tumor spheroids was designed to identify active combinations of DNA G-quadruplex stabilizer agents and targeted small molecules. Complex spheroids include a stromal component modeled by human endothelial cells (HUVEC) and fibroblasts modeled by human mesenchymal stem cells (MSCs). The concentration ranges selected for each drug and investigational agent were based upon clinically achievable concentrations if the clinical Cmax of the agent was known.
Compounds. The drugs and investigational agents: pidnarulex (CX-5461; NSC782164), APTO-253 (NSC789042), BRACO-19 (NSC847499), peposertib (NSC802822), ceralasertib (NSC780249), elimusertib (NSC800525), camonsertib (NSC841442), AZD-1390 (NSC803789), olaparib (NSC753686), talazoparib (NSC767125), ART-558 (NSC835418), sotorasib (NSC818433), MRTX-1133 (NSC836407), SN-38 (NSC673596), topotecan (NSC609699), etoposide (NSC141540), doxorubicin (NSC123127), gemcitabine (NSC613327), 5-fluorouracil (NSC19893), paclitaxel (NSC125973), vemurafenib (NSC761431), panobinostat (NSC761190), R-306465 (JNJ-16241199; NSC773264), adavosertib (NSC754352), TP-3654 (NSC805149), carboplatin (NSC241240), KSQ-4279 (NSC840948), and staurosporine (NSC755774) were obtained from the National Cancer Institute (NCI) Developmental Therapeutics Program Chemical Repository (34). The FDA-approved anticancer drug set is available from the NCI Developmental Therapeutics Program. […] The stock solutions were prepared in dimethyl sulfoxide (DMSO, Sigma-Aldrich, St. Louis, MO, cat. D2650) at 800-fold the tested concentration and stored at -70 degrees C prior to their use. All drugs and investigational agents were tested over a range starting from a high concentration at or near the clinical Cmax and decreasing in half-log increments. If the clinical Cmax for an agent had not been determined, the highest concentration tested was 10 microM.
2.3 Cell Culture. All cells were maintained in an incubator at 37 degrees C and 5% CO2 with 95% humidity. The PDC lines were cultured according to standard operating procedures established by the NCI PDMR. All PDCs were thawed and cultured in Matrigel-coated flasks prepared with a working solution of 1X Ham's F-12 nutrient mix, without supplementation (Invitrogen, cat. 11765054), 100 U/mL penicillin-streptomycin (Invitrogen, cat. 15140122), and 2.5% Matrigel (Corning Inc., cat. 354248) for the first three passages. The 857933-349-R-J2-PDC line was cultured in 6C/Colon 1B media, which includes advanced DMEM/F-12 (Thermo Fisher Scientific, cat. 12634028), 10 mM HEPES (Thermo Fisher Scientific, cat. 15630080), 1X GlutaMAX supplement (Thermo Fisher Scientific, cat. 35050061), 0.1 mg/mL primocin (InvivoGen, cat. ant-pm-2), 10% defined fetal bovine serum, heat inactivated (HyClone Laboratories Inc., cat. SH30070.03HI), 50% L-WRN conditioned media (ATCC, cat. CRL-3276), 1.25 mM N-Acetyl-L-cysteine (Sigma-Aldrich, cat. A9165), 10 mM nicotinamide (Sigma-Aldrich, cat. N0636), 1X B-27 supplement (Thermo Fisher Scientific, cat. 17504044), 1X N-2 supplement (Thermo Fisher Scientific, cat. 17502048), 10 microM Y-27632 dihydrochloride (Tocris Bioscience, cat. 1254), and 50 ng/mL human EGF recombinant protein (Thermo Fisher Scientific, cat. PHG0311). The 485176-168-R4-J1-PDC line was cultured in Panc media, which includes all 6C/Colon 1B media components plus 100 ng/mL human FGF-10 (Thermo Fisher Scientific, cat. 100-26), 500 nM SB-431542 (Selleckchem, cat. S1067), and gastrin (Tocris, cat. 3006).
[…]

[1] = second compound 0.0316 µM, first compound 0.0316 µM
[2] = second compound 0.0316 µM, first compound 0.1 µM
[3] = second compound 0.0316 µM, first compound 0.316 µM
[4] = second compound 0.0316 µM, first compound 1 µM
[5] = second compound 0.0316 µM, first compound 3.16 µM
[6] = second compound 0.0316 µM, first compound 10 µM
[7] = second compound 0.1 µM, first compound 0.0316 µM
[8] = second compound 0.1 µM, first compound 0.1 µM
[9] = second compound 0.1 µM, first compound 0.316 µM
[10] = second compound 0.1 µM, first compound 1 µM
[11] = second compound 0.1 µM, first compound 3.16 µM
[12] = second compound 0.1 µM, first compound 10 µM
[13] = second compound 0.316 µM, first compound 0.0316 µM
[14] = second compound 0.316 µM, first compound 0.1 µM
[15] = second compound 0.316 µM, first compound 0.316 µM
[16] = second compound 0.316 µM, first compound 1 µM
[17] = second compound 0.316 µM, first compound 3.16 µM
[18] = second compound 0.316 µM, first compound 10 µM
[19] = second compound 1 µM, first compound 0.0316 µM
[20] = second compound 1 µM, first compound 0.1 µM
[21] = second compound 1 µM, first compound 0.316 µM
[22] = second compound 1 µM, first compound 1 µM
[23] = second compound 1 µM, first compound 3.16 µM
[24] = second compound 1 µM, first compound 10 µM
[25] = second compound 3.16 µM, first compound 0.0316 µM
[26] = second compound 3.16 µM, first compound 0.1 µM
[27] = second compound 3.16 µM, first compound 0.316 µM
[28] = second compound 3.16 µM, first compound 1 µM
[29] = second compound 3.16 µM, first compound 3.16 µM
[30] = second compound 3.16 µM, first compound 10 µM
[31] = second compound 10 µM, first compound 0.0316 µM
[32] = second compound 10 µM, first compound 0.1 µM
[33] = second compound 10 µM, first compound 0.316 µM
[34] = second compound 10 µM, first compound 1 µM
[35] = second compound 10 µM, first compound 3.16 µM
[36] = second compound 10 µM, first compound 10 µM
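Further: spheroids exposed to compounds for seven days.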

CC(=O)O[C@H]1C(=O)[C@@]2(C)[C@H]([C@H](OC(=O)c3ccccc3)[C@]3(O)C[C@H](OC(=O)[C@H](O)[C@@H](NC(=O)c4ccccc4)c4ccccc4)C(C)=C1C3(C)C)[C@]1(OC(C)=O)CO[C@@H]1C[C@@H]2O + Cc1cnc(CNC(=O)c2c(=O)c3ccc(N4CCCN(C)CC4)nc3n3c2sc2ccccc23)cn1
active: viability, T/C [31] 0.14% | viability, T/C [32] 0.18% | viability, T/C [33] 0.21% | viability, T/C [34] 0.18% | viability, T/C [35] 0.19% | viability, T/C [36] 0.2%
inactive: viability, T/C [1] 53.4% | viability, T/C [2] 27.2% | viability, T/C [3] 38.1% | viability, T/C [4] 23.7% | viability, T/C [5] 29.2% | viability, T/C [6] 31.1% | viability, T/C [7] 47.4% | viability, T/C [8] 35.2% | viability, T/C [9] 30.4% | viability, T/C [10] 31.8% | viability, T/C [11] 29.5% | viability, T/C [12] 36.8% | viability, T/C [13] 47% | viability, T/C [14] 39.9% | viability, T/C [15] 36.5% | viability, T/C [16] 29.9% | viability, T/C [17] 39.1% | viability, T/C [18] 34.3% | viability, T/C [19] 32.4% | viability, T/C [20] 36.2% | viability, T/C [21] 26.6% | viability, T/C [22] 37.4% | viability, T/C [23] 41.9% | viability, T/C [24] 34.4% | viability, T/C [25] 31.9% | viability, T/C [26] 33.5% | viability, T/C [27] 32.6% | viability, T/C [28] 28.9% | viability, T/C [29] 32.5% | viability, T/C [30] 36.5%
< 0.0316 µM: IC50 (second compound 0.1 µM) | IC50 (second compound 0.316 µM) | IC50 (second compound 1 µM) | IC50 (second compound 3.16 µM) | IC50 (second compound 10 µM)
0.0374 µM: IC50 (second compound 0.0316 µM)

CC(=O)O[C@H]1C(=O)[C@@]2(C)[C@H]([C@H](OC(=O)c3ccccc3)[C@]3(O)C[C@H](OC(=O)[C@H](O)[C@@H](NC(=O)c4ccccc4)c4ccccc4)C(C)=C1C3(C)C)[C@]1(OC(C)=O)CO[C@@H]1C[C@@H]2O + Cc1[nH]c2ccc(F)cc2c1-c1nc2c3cccnc3c3ncccc3c2[nH]1
< 0.0316 µM: IC50 (second compound 0.0316 µM) | IC50 (second compound 0.1 µM) | IC50 (second compound 0.316 µM) | IC50 (second compound 1 µM) | IC50 (second compound 3.16 µM) | IC50 (second compound 10 µM)
inactive: viability, T/C [1] 31.8% | viability, T/C [2] 25% | viability, T/C [3] 21.2% | viability, T/C [4] 16.8% | viability, T/C [5] 24.9% | viability, T/C [6] 28.7% | viability, T/C [7] 42.4% | viability, T/C [8] 23.7% | viability, T/C [9] 19.6% | viability, T/C [10] 18.7% | viability, T/C [11] 22.7% | viability, T/C [12] 27.1% | viability, T/C [13] 40% | viability, T/C [14] 28.3% | viability, T/C [15] 18.6% | viability, T/C [16] 22.3% | viability, T/C [17] 24.5% | viability, T/C [18] 29.1% | viability, T/C [19] 38.1% | viability, T/C [20] 28.2% | viability, T/C [21] 18.5% | viability, T/C [22] 26.1% | viability, T/C [23] 31.6% | viability, T/C [24] 31.4% | viability, T/C [25] 34.6% | viability, T/C [26] 18.9% | viability, T/C [27] 18.5% | viability, T/C [28] 16.7% | viability, T/C [29] 22.9% | viability, T/C [30] 18.1% | viability, T/C [31] 27.6% | viability, T/C [32] 23.2% | viability, T/C [33] 24.1% | viability, T/C [34] 15.4% | viability, T/C [35] 22.2% | viability, T/C [36] 23.1%
